Source: patent US20030073850A1, “4-Imidazole derivatives of benzyl and restricted benzyl sulfonamides, sulfamides, ureas, carbamates, and amides and their use” (priority 1998, published 2003)
pKi: −log10 of the molar value. Like-named read-outs stand apart in the source and are kept apart here.

Legend:
anesthetized dogs [1] = assay: Mean arterial pressure (MAP) in anesthetized dogs; type: in vivo, dog; details: iv dose causing a maximum increase in MAP of 20 mm Hg, anesthetized female Beagle dogs
Source text: (§1) Female Beagle dogs (Marshall Farms, North Rose, N.Y.) greater that 2 years of age and weighing between 12 and 15 kg were used in these studies. At least 2 weeks prior to any agonist dosing, dogs were instrumented for the chronic measurement of arterial blood pressure by implanting a telemetry transducer/transmitter (TA11PA-C40, Data Sciences International, St. Paul, Minn.) into a carotid artery.
(§2) On the test day, dogs fasted since the previous afternoon were pre-anesthetized with thiopental sodium 15 mg/kg i.v. (Pentothal™, Abbott) and intubated. Anesthesia was maintained by allowing the dog to spontaneously breathe a mixture of isoflurane (2.5 to 3 volume %) and oxygen delivered by a Narkomed Standard anesthesia system (North American Drager, Telford, Pa.). An Abbocath-T™ i.v. catheter (18-G, Abbott) was inserted into the cephalic vein for the administration of agonists. A telemetry receiver (RA1310, DataSciences) was placed under the head of each dog and was interfaced to a computerized data acquisition system (Modular Instruments Inc.(MI2), Malvern, Pa.) which allowed for the continuous calibrated recording of arterial blood pressure which was electronically filtered to determine its mean value (MAP).
(§3) From the resulting dose response curve, an ED5 value, for the dose causing a maximum increase in IUP of 5 mm Hg, could be estimated. An ED20 value for the dose causing a maximum increase in MAP of 20 mm Hg could also be estimated. A selectivity ratio of MAP ED20 vs. IUP ED, was calculated.

[2] = target: T1, α1b (hamster receptor expressed in mouse fibroblasts) (Mesocricetus auratus, UniProt P18841); assay: Radioligand binding, [3H]-prazosin, α1b
T1 construct: expressed in transfected cells; host or cells: mouse fibroblasts
T1 sequence (P18841 1-515): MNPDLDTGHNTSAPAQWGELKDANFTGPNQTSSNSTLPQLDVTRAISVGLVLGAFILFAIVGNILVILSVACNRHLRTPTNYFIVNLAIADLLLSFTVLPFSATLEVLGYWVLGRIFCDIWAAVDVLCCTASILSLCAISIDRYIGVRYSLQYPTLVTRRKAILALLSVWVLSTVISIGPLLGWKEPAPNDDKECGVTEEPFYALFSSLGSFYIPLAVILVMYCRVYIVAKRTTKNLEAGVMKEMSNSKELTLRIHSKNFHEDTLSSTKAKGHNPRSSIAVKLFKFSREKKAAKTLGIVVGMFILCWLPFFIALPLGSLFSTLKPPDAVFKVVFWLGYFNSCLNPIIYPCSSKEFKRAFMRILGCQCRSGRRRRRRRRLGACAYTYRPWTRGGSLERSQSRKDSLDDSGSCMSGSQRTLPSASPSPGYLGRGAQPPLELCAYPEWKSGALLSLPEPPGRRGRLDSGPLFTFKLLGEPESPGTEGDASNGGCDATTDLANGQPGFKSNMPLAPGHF
Procedure, shortened: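 [3H]-prazosin radioligand displacement; α1A from rat submaxillary gland tissue, α1b hamster and α1d rat receptors each expressed in mouse fibroblasts.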

α1A (rabbit urethra) = target: T2, α1A (rabbit urethra) (Oryctolagus cuniculus, UniProt O02824); assay: Agonist tissue response, contraction of rabbit urethra; type: biochemical; details: values without asterisk, read-out: Agonist Tissue Response (pD2) α1A (rab ureth) (converted)
T2 construct: tested for α1A functional activity using rabbit urethra; from tissue; host or cells: rabbit urethra (female New Zealand white rabbits)
T2 sequence (O02824 1-466): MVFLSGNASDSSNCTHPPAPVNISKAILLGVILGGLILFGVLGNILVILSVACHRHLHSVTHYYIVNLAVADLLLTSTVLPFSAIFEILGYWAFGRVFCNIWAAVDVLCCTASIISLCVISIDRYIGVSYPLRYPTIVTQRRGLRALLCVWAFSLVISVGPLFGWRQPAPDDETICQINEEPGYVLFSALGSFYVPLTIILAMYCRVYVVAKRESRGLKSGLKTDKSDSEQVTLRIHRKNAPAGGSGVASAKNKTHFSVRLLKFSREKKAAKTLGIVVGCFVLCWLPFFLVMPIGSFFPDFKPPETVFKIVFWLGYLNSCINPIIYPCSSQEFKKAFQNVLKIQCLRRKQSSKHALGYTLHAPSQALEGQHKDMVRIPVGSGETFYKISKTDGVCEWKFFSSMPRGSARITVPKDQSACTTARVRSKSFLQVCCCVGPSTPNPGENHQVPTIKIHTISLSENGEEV
Description: Most of the compounds were tested for α1A functional activity using rabbit urethra as follows. Female New Zealand white rabbits (2.0-3.5 Kg) were sedated with CO2 and decapitated. […] Subsequent experimental conditions were as described above for the other tissues. Agonist concentration response curves were cumulative except for the vas deferens assay in which the transient response made such measurements impractical.

[3] = target: T3, α1d (rat receptor expressed in mouse fibroblasts) (Rattus norvegicus, UniProt P23944); assay: Radioligand binding, [3H]-prazosin, α1d
T3 construct: expressed in transfected cells; host or cells: mouse fibroblasts
T3 sequence (P23944 1-561): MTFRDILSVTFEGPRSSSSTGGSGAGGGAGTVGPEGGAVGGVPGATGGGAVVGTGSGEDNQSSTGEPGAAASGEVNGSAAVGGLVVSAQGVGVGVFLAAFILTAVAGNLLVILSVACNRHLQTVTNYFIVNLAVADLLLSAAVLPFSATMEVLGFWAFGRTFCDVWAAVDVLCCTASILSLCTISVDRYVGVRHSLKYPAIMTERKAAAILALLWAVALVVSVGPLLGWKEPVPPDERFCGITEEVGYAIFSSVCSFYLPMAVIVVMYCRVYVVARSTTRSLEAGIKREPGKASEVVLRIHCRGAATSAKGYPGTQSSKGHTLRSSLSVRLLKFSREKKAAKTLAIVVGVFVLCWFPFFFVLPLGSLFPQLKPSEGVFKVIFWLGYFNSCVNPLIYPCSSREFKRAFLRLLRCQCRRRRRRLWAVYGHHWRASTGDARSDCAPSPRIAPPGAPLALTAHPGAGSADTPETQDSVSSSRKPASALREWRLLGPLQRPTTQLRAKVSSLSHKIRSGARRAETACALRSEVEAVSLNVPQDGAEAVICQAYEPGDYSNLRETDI
Description: (§4) For purposes of discussing a, adrenoceptor subtypes, the IUPHAR convention of using lower case letters to define molecular clones and upper case letters to indicate pharmacologically defined adrenoceptors has been followed. Compounds of formula I were evaluated in radioligand binding assays specific for α1A (rat submaxillary gland), α1b (hamster receptor expressed in mouse fibroblasts) and α1d (rat receptor expressed in mouse fibroblasts) using [^3H]-prazosin as the radioligand as described in Knepper, et al. J. Pharm.

anesthetized dogs [4] = assay: Intraurethral pressure (IUP) in anesthetized dogs; type: in vivo, dog; details: for ED (5 mm Hg): Canis lupus familiaris, iv dose causing a maximum increase in IUP of 5 mm Hg, anesthetized female Beagle dogs, read-out: Mean IUP ED5; for Mean Selectivity Ratio MAP ED20/IUP ED5: anesthetized dogs, iv
Source text: as §1, §2
Dogs with chronic telemetry implants anesthetized as described above were placed in dorsal recumbency and a balloon catheter was inserted into the urethral orifice and advanced approximately 15 cm until the tip was well inside the bladder. The balloon was then inflated with 1 ml of room air and the catheter slowly withdrawn until resistance (corresponding to the bladder neck) was evident. The balloon was then deflated and the catheter withdrawn additional 2 cm. The balloon was then reinflated and its catheter port connected to a Gould Statham P23Dd pressure transducer interfaced to a computerized data acquisition system (Modular Instruments, Inc., Malvern, Pa.) for the measurement of the intraurethral pressure. Increasing iv doses of test agonists were administered and the maximum effect of each dose on IUP was recorded. The effect of each dose was allowed to return to baseline before the next dose was given.
as §3

[5] = target: T4, α1A (rat submaxillary gland) (Rattus norvegicus, UniProt P43140); assay: Radioligand binding, [3H]-prazosin, α1A
T4 construct: α1A (rat submaxillary gland); from tissue; host or cells: rat submaxillary gland
T4 sequence (P43140 1-466): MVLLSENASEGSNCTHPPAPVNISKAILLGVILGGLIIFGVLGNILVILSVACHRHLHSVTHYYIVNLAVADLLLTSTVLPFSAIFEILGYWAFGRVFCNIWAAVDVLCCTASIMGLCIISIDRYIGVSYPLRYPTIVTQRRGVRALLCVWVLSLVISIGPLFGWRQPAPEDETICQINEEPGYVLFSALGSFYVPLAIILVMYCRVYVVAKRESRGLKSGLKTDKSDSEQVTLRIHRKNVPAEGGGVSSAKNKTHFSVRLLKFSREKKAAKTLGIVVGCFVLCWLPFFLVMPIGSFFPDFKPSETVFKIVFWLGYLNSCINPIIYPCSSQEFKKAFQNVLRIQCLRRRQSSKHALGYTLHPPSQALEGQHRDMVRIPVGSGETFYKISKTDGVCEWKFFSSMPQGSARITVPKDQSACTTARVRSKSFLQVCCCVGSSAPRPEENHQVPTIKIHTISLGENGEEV
Description: as §4

[6] = hamster receptor expressed in mouse fibroblasts, [3H]-prazosin, read-out: Radioligand Binding Ki α1b (Hamster)
[7] = rat receptor expressed in mouse fibroblasts, [3H]-prazosin, read-out: Radioligand Binding Ki α1d (Rat)

| Mean MAP ED20 (anesthetized dogs [1]) [nmol/kg] | pKi [2, 6] | pKi [3, 7] | Compound | pKi [2] | EC50 (α1A (rabbit urethra)) [µM] | pKi [3] | ED (5 mm Hg) (anesthetized dogs [4]) [µmol/kg] | Mean Selectivity Ratio MAP ED20/IUP ED5 (anesthetized dogs [4]) | pKi [5] | melting point [°C] |
| --- | --- | --- | --- | --- | --- | --- | --- | --- | --- | --- |
| 500 | 5.00 | 5.00 | CC1CC(C)CN(C(=O)Nc2cccc3c2CCCC3c2c[nH]cn2)C1 (stereo not shown) [Example 115, N-[5-(1H-imidazol-4-yl)-5,6,7,8-tetrahydro-1-naphthalenyl]-3,5-dimethyl-1-piperidinecarboxamide] |  | 5.5 |  | 0.5 | 1.05 | 5.94 |  |
| 733.7 | 5.00 | 5.68 | CCN(C(=O)Nc1cccc2c1CCCC2c1c[nH]cn1)C1CCCCC1 (stereo not shown) [Example 113, N-cyclohexyl-N-ethyl-N′-[5-(1H-imidazol-4-yl)-5,6,7,8-tetrahydro-1-naphthalenyl]urea] |  | 3.98 |  |  |  | 6.27 |  |
| 1074.07 | 5.00 | 5.25 | O=C(Nc1cccc2c1CCCC2c1c[nH]cn1)N1CCCCC1 (stereo not shown) [Example 114, N-[5-(1H-imidazol-4-yl)-5,6,7,8-tetrahydro-1-naphthalenyl]-1-piperidinecarboxamide] |  | 9.12 |  | 1.68 | 0.97 | 5.98 |  |
|  | 5.00 | 5.00 | CCCN(CCC)C(=O)Nc1cccc2c1CCCC2c1c[nH]cn1 (stereo not shown) [Example 112, N′-[5-(1H-imidazol-4-yl)-5,6,7,8-tetrahydro-1-naphthalenyl]-N,N-dipropylurea] |  | 7.94 |  |  |  | 5.91 |  |

The remaining lines, values behind:

| Compound | Mean MAP ED20 (anesthetized dogs [1]) [nmol/kg] | pKi [2, 6] | pKi [3, 7] | pKi [2] | EC50 (α1A (rabbit urethra)) [µM] | pKi [3] | ED (5 mm Hg) (anesthetized dogs [4]) [µmol/kg] | Mean Selectivity Ratio MAP ED20/IUP ED5 (anesthetized dogs [4]) | pKi [5] | melting point [°C] |
| --- | --- | --- | --- | --- | --- | --- | --- | --- | --- | --- |
| O=C(Nc1cccc2c1CCCC2c1c[nH]cn1)N1CCOCC1 (stereo not shown) [Example 117, N-[5-(1H-imidazol-4-yl)-5,6,7,8-tetrahydro-1-naphthalenyl]-4-morpholinecarboxamide] | 645 |  |  | 5.00 | 5.37 | 5.00 | 0.873 | 0.75 | 5.96 |  |
| O=S(=O)(Cc1ccccc1)Nc1cccc2c1CCCC2c1cnc[nH]1 (stereo not shown) [Example 67, N-[5-(1H-imidazol-5-yl)-5,6,7,8-tetrahydro-1-naphthalenyl](phenyl)methanesulfonamide] |  | 5.62 | 5.43 |  | 107 |  |  |  | 6.05 |  |
| O=S(=O)(C=Cc1ccccc1)Nc1cccc2c1CCCC2c1cnc[nH]1 (stereo not shown) [Example 70, N-[5-(1H-imidazol-5-yl)-5,6,7,8-tetrahydro-1-naphthalenyl]-2-phenyl-1-ethenesulfonamide] |  | 6.41 | 6.45 |  | 81.3 |  |  |  | 6.37 |  |
| COCCN(CCOC)C(=O)Nc1cccc2c1CCCC2c1c[nH]cn1 (stereo not shown) [Example 116, N′-[5-(1H-imidazol-4-yl)-5,6,7,8-tetrahydro-1-naphthalenyl]-N,N-bis(2-methoxyethyl)urea] |  | 5.00 | 5.00 |  | 9.33 |  |  |  | 5.53 |  |
| O=C(Nc1cccc2c1CCCC2c1c[nH]cn1)OCC(Cl)(Cl)Cl (stereo not shown) [Example 121, 2,2,2-trichloroethyl 5-(1H-imidazol-4-yl)-5,6,7,8-tetrahydro-1-naphthalenylcarbamate] |  |  |  | 5.73 | 3.72 | 6.02 |  |  | 6.64 |  |
| C=C(c1cccc(NS(C)(=O)=O)c1)c1c[nH]cn1 [Example 92, N-{3-[1-(1H-imidazol-4-yl)vinyl]phenyl}methanesulfonamide] | 652.06 | 5.00 | 5.70 |  | 3.24 |  | 0.397 |  | 6.16 |  |
| CC(C)[C@H]1CC[C@H](C)C[C@@H]1OC(=O)Nc1cccc2c1CCCC2c1c[nH]cn1 (stereo partly drawn) [Example 123, (1S,2R,5S)-2-isopropyl-5-methylcyclohexyl 5-(1H-imidazol-4-yl)-5,6,7,8-tetrahydro-1-naphthalenylcarbamate] |  | 5.87 | 6.16 |  | 6.17 |  |  |  | 5.89 |  |
| CS(=O)(=O)Nc1cc(F)cc2c1OCCC2c1c[nH]cn1.O=C(O)/C=C\C(=O)O (stereo not shown) [Example 90, N-[6-fluoro-4-(1H-imidazol-4-yl)-3,4-dihydro-2H-chromen-8-yl]methanesulfonamide Maleate] |  | 5.00 | 5.00 |  | 0.49 |  |  |  | 6.63 | 187 to 190 |
